Measurements published in patent publication US20130123281A1, “Compositions and Methods for Inhibition of TBL-1 Binding to Disease-Associated Molecules” (BETA CAT PHARMACEUTICALS, LLC, priority 2011, published 2013).
Each block holds one compound with its values, some of them ahead of it.

Experiments:
TBL1:β-catenin complex = target: T1, TBL1:β-catenin complex (Homo sapiens, UniProt O60907); experiment: Sandwich ELISA capturing the TBL1:β-catenin complex from treated cell lysates; type: cell-based
T1 construct: endogenous in cells; host or cells: HCT15 (A2 also names HCT116)
T1 sequence (O60907 1-577): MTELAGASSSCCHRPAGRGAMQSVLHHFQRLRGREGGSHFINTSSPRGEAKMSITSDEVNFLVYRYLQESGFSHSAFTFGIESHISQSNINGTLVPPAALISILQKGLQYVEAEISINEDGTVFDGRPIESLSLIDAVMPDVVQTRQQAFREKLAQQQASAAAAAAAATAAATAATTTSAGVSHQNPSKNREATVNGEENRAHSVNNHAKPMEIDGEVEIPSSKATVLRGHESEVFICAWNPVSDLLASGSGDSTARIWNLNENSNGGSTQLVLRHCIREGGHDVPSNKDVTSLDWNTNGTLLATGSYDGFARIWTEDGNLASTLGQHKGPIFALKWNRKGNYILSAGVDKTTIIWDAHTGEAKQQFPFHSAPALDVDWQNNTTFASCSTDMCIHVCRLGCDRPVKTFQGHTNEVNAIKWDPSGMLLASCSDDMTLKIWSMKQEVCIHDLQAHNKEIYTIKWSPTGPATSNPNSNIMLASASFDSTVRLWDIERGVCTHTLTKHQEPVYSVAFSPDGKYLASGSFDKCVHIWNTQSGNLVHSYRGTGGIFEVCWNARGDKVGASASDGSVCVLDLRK
Experimental: HCT 15 cells are incubated with 20 mM LiCl to induce the Wnt pathway. After 24 h fresh medium with 20 mM LiCl and test agent is added at concentration in the range of 0.3 nM to 3 μM for 6 hours at 37° C. Protein lysates are prepared from cells lysed in RIPA buffer containing protease inhibitors, High affinity binding Sandwich Elisa assays were prepared in 96 well Maxisorp plates (NUNC) by coating with 100 μl in each well of unlabeled capture TBL1 antibody (Santa Cruz Biotech) diluted to a final concentration of 2 ug/ml in carbonate/bicarbonate coating buffer, and incubated 18 hours at 4° C. […] The sealed plate was incubated for 2 h at RT, washed 3 times with PBS 0.05% Tween-20, and then the complex and the recombinant protein was detected by antibody against β-catenin (Cell Signaling Tech) and secondary antibody HRP-conjugated (Sigma). Signal was detected by addition of ABTS HRP substrate
(SIGMA), and read with a microplate reader set to 405 nm.
To determine the amount of β-catenin captured, a standard curve was created using recombinant β-catenin (100 fg to 100 ng, Abnova) added instead of cell lysates in the above procedure. Intensity of signal was compared to values generated using test article treated lysates and approximate amount of bound beta catenin determined. […]

[1] = target: T2, full length recombinant human β-catenin (Homo sapiens, UniProt P35222); experiment: Saturation binding assay with biotinylated compound on coated β-catenin; settings: biotinylated compound 0.1 nM to 10 μM, 2 h at room temperature
T2 construct: full length recombinant human β-catenin (ABNOVA); purchased ABNOVA
T2 sequence (P35222 1-781): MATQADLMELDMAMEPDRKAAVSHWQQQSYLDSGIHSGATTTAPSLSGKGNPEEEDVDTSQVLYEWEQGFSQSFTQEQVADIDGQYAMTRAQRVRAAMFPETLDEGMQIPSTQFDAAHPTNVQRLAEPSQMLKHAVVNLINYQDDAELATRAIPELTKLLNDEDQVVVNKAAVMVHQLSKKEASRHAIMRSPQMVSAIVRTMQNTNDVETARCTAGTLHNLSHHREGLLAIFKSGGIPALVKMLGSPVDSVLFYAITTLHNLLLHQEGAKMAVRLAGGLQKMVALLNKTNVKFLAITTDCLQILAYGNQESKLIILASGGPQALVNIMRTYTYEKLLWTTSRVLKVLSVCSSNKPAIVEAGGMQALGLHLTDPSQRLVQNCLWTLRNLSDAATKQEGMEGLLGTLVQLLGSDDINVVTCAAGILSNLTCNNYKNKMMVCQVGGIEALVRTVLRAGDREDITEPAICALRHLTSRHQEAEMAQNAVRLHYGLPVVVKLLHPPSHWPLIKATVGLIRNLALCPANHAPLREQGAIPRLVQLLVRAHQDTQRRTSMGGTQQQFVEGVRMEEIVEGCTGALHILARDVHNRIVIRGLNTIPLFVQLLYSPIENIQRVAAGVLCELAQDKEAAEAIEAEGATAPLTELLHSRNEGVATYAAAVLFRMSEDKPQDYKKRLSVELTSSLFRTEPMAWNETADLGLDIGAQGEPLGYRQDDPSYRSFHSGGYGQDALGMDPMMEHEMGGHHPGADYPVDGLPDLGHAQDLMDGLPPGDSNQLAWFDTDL
Experimental: (§1) Additionally, Compound 1 can be modified to contain a functional group, such as biotin, capable of being attached to a solid support and test agents identified that disrupt the binding of immobilized Compound 1 to TBL1 protein. High affinity binding Elisa 96 well plate (Maxisorp, Nunc) was coated with 100 μl to each well of full length recombinant human TBL1 or full length recombinant human β-catenin (ABNOVA) diluted to a final concentration of 1 μg/ml in carbonate/bicarbonate coating buffer, sealed to prevent evaporation, and incubated O/N at 4° C. […] The sealed plate was incubated for 2 h at room temperature, washed 3 times with PBS 0.05% Tween-20, and then the bounded compound was detected by streptavidin-HRP conjugated antibody (Cell Signaling Tech) diluted in blocking buffer. Elisa was developed by addition of ABTS HRP substrate (SIGMA), and the optical density (OD) for each well was read with a microplate reader set to 405 nm. […]
(§2) To determine whether the ability of BC2059 to interfere with TBL1:β-catenin complex formation is due to direct interaction between TBL1 or β-catenin and the compound, we performed saturation binding assays in a in vitro system. […] The sealed plate was incubated for 2 h at RT, washed 3 times with PBS 0.05% Tween-20, and then the bounded compound was detected by streptavidin-HRP conjugated antibody (Cell Signaling Tech) diluted in blocking buffer. […]

[2] = target: T3, interaction of β-catenin with TBL1 (Homo sapiens, UniProt O60907); experiment: Immunoprecipitation with TBL1 antibody and Western blot for β-catenin; type: cell-based; settings: HCT15 cells treated for 6 h, Western blot
T3 construct: endogenous in cells; host or cells: HCT15 (A2 also names HCT116)
T3 sequence (O60907 1-577): T1 sequence (O60907 1-577)
Experimental: FIG. 2 depicts Western blot of an immunoprecipitation using TBL1 antibody. HCT15 cells were incubated with DMSO or indicated concentration of compound for 6 hours. Cell lysates were made and immunoprecipitated with TBL1 antibody. Proteins were separated on an SDS gel, transferred to a membrane and probed with antibodies to β-catenin and to TBL1. Briefly, the HCT15 cell line was seeded at 70% confluence in medium containing 10% FBS and penicillin/streptomycin. After 24 h the cells were treated with Compound 1 for 6 h. Cell lysates were harvested, precleared with protein NG sepharose (Santa Cruz Biotech), and TBL1 was immunoprecipitated using mouse TBL1 antibody (Santa Cruz Biotech) conjugated to protein G sepharose (Santa Cruz Biotech). Immunoprecipitated proteins were resolved on a 10% SDS-PAGE gel followed by transfer of proteins to a nitrocellulose membrane. Western blot analysis was done using antibodies to detect β-catenin protein (BD Transduction Laboratories) and TBL1 protein (Santa Cruz Biotech).

[3] = target: T4, full length recombinant human TBL1 (Homo sapiens, UniProt O60907); experiment: Saturation binding assay with biotinylated compound on coated TBL1; settings: biotinylated compound 0.1 nM to 10 μM, 2 h at room temperature; read-out: IC50 of binding to TBL1 at the equilibrium
T4 construct: full length recombinant human TBL1 or full length recombinant human β-catenin; purchased ABNOVA
T4 sequence (O60907 1-577): T1 sequence (O60907 1-577)
Experimental: as §1, §2

TBL1 = target: T5, TBL1 (Homo sapiens, UniProt O60907); experiment: TBL1 inhibition (Table 5); type: binding
T5 construct: full length recombinant human TBL1 or full length recombinant human β-catenin; purchased ABNOVA
T5 sequence (O60907 1-577): T1 sequence (O60907 1-577)
Experimental: Briefly, for homologous competitive assay, a single concentration of 50 nM of biotinylated compound was added to the wells containing TBL1 recombinant protein, in the presence of various concentrations of unlinked compound (range of 0.1 nM to 10 μM) diluted in binding buffer. The sealed plate was incubated for 2 h at RT, and then processed as described above. For the heterologous competitive binding assay, 75 nM of β-catenin was used in place of the biotinylated compound, and the bounded protein was detected by anti-β-catenin antibody (Cell Signaling Tech) followed by secondary HRP-conjugated antibody.
To determine whether the ability of BC2059 to interfere with TBL1:β-catenin complex formation is due to direct interaction between TBL1 or β-catenin and the compound, we performed saturation binding assays in a in vitro system. High affinity binding Elisa 96 well plate (Maxisorp, Nunc) was coated with 100 ul to each well of full length recombinant human TBL1 or full length recombinant human β-catenin diluted to a final concentration of 1 ug/ml in carbonate/bicarbonate coating buffer, sealed to prevent evaporation, and incubated O/N at 4° C. After washing the plate 3 times with PBS 0.05% Tween-20, and blocking the plate with 200 μl of PBS 1% BSA each well for 1 h at RT, 100 μl of biotinylated compound was added to each well containing the recombinant proteins, at concentration in the range of 0.1 nM to 10 μM, diluted in binding buffer (50 mM TrisHCl pH 7.4, 10 mM MgCl2). The sealed plate was incubated for 2 h at RT, washed 3 times with PBS 0.05% Tween-20, and then the bounded compound was detected by streptavidin-HRP conjugated antibody (Cell Signaling Tech) diluted in blocking buffer. Elisa was developed by addition of ABTS HRP substrate (SIGMA), and the optical density (OD) for each well was read with a microplate reader set to 405 nm. To validate the saturation binding assay, homologous and heterologous competitive binding experiment were performed in an in vitro system. Briefly, for homologous competitive assay, a single concentration of 50 nM of biotinylated compound was added to the wells containing TBL1 recombinant protein, in the presence of various concentrations of unlinked compound (range of 0.1 nM to 10 uM) diluted in binding buffer. The sealed plate was incubated for 2 h at RT, and then processed as described above. For the heterologous competitive binding assay, 75 nM of β-catenin was used in place of the biotinylated compound, and the bounded protein was detected by anti-β-catenin antibody (Cell Signaling Tech) followed by secondary HRP-conjugated antibody.

HCT116 cells = experiment: Cell screening in HCT116 cells (Table 5); type: cell-based; settings: Homo sapiens, HCT-116

Structure (SMILES): C[C@@H]1C[C@H](C)CN(S(=O)(=O)c2ccc3c(c2)C(=NO)c2cc(S(=O)(=O)N4C[C@H](C)C[C@H](C)C4)ccc2C3=NO)C1 [Compound 1]
IC50 (TBL1:β-catenin complex; HCT 15 cells, 20 mM LiCl, test agent 6 hours, read-out: IC50, interference with TBL1 and β-catenin interaction): 10 to 20 nM
binding to β-catenin [1]: not β-catenin
disruption of the interaction of β-catenin with TBL1 [2]: able to disrupt the interaction of β-catenin with TBL1
IC50 [3]: 20 nM

Structure (SMILES): CN(Cc1ccncc1)Cc1ccc(-c2nc(-c3cccnc3)cc(=O)[nH]2)cc1 [Compound 10, 2-(4-((methyl(pyridin-4-ylmethyl)amino)methyl)phenyl)-6-(pyridin-3-yl)pyrimidin-4(3H)-one]
EC50 (TBL1): 0.28 µM

Structure (SMILES): Cc1ccc(CN(C)Cc2ccc(-c3nc(-c4cccnc4)cc(=O)[nH]3)cc2)o1 [Compound 11]
EC50 (TBL1): 0.29 µM

The next lines start with the values.

EC50 (TBL1): 102 µM
Structure (SMILES): CC(C)N(C)Cc1ccc(-c2nc(-c3cccnc3)cc(=O)[nH]2)cc1 [Compound 12, 2-(4-((isopropyl(methyl)amino)methyl)phenyl)-6-(pyridin-3-yl)pyrimidin-4(3H)-one]

EC50 (TBL1:β-catenin complex; compound 0.3 nM to 3 μM for 6 h, cell lysates, read-out: EC50 μM TBL1: β-Catenine): 0.41 µM
EC50 (TBL1): 0.054 µM
EC50 (HCT116 cells): 0.127 µM
Structure (SMILES): CC(Nc1ncnc2[nH]cnc12)c1cnn(-c2ccccc2F)c1 (stereo not shown) [Compound 15, N-(1-(1-(2-fluorophenyl)-1H-pyrazol-4-yl)ethyl)-9H-purin-6-amine]
